Patent US9204653B2, “5-fluoro pyrimidine derivatives” (DOW AGROSCIENCES LLC, priority 2008, dated 2015)
Like-named read-outs stand apart in the source and are kept apart here.

Key:
[1] = system: Mycosphaerella graminicola; Anamorph: Septoria tritici; Bayer Code SEPTTR; assay: Leaf blotch of wheat, foliar fungicide treatment, one day protectant (1DP) or three day curative (3DC); format: in vivo, Septoria tritici on wheat plants (variety Yuma); conditions: Zymoseptoria tritici, rating of percent disease control
[2] = system: Cercospora beticola; Bayer Code CERCBE; assay: Leaf spot of sugar beets; format: in vivo, Cercospora beticola on sugar beets (variety HH-88); conditions: 24 h, % disease control rating, one day protectant; for pest or weed control at 25 ppm: read-out: CERCBE 1 DP 25 ppm; for pest or weed control at 75 ppm: read-out: CERCBE 1 DP 75 ppm
[3] = system: Venturia inaequalis; Bayer Code VENTIN; assay: Apple scab; format: in vivo; conditions: 24 h, % disease control rating, one day protectant; for pest or weed control at 25 ppm: read-out: VENTIN 1 DP 25 ppm; for pest or weed control at 75 ppm: read-out: VENTIN 1 DP 75 ppm
[4] = 24 h, one day protectant (1DP), read-out: SETTTR 1DP 25 ppm
[5] = 24 h, one day protectant (1DP), read-out: SEPTTR 1DP 100 ppm
[6] = 72 h, three day curative (3DC), read-out: SEPTTR 3DC 25 ppm
[7] = 72 h, three day curative (3DC), read-out: SEPTTR 3DC 100 ppm
[8] = 24 h, one day protectant, read-out: SETTTR 1DP 25 ppm
[9] = 24 h, one day protectant, read-out: SEPTTR 1DP 100 ppm
[10] = 72 h, three day curative, read-out: SEPTTR 3DC 25 ppm
[11] = 72 h, three day curative, read-out: SEPTTR 3DC 100 ppm

Compound	pest or weed control at 25 ppm [1, 4] [%]	pest or weed control at 100 ppm [1, 5] [%]	pest or weed control at 25 ppm [1, 6] [%]	pest or weed control at 100 ppm [1, 7] [%]	pest or weed control at 25 ppm [2] [%]	pest or weed control at 75 ppm [2] [%]	pest or weed control at 25 ppm [3] [%]	pest or weed control at 75 ppm [3] [%]	pest or weed control at 25 ppm [1, 8] [%]	pest or weed control at 100 ppm [1, 9] [%]	pest or weed control at 25 ppm [1, 10] [%]	pest or weed control at 100 ppm [1, 11] [%]
CC(Oc1ncc(F)c(/N=C/N(C)C)n1)c1ccc(F)cc1 (centres unmarked) [Compound 483]	76 to 100	76 to 100	76 to 100	76 to 100	0 to 25	0 to 25	26 to 50	76 to 100				
COc1ncc(Oc2ncc(F)c(N)n2)cn1 [Compound 488]	0 to 25	0 to 25	0 to 25	0 to 25	0 to 25	0 to 25	26 to 50	26 to 50				
COc1ccccc1CCOc1ncc(F)c(N)n1 [Compound 524]	0 to 25	51 to 75	0 to 25	51 to 75	0 to 25	0 to 25	51 to 75	51 to 75				
Cc1ccc(COc2ncc(F)c(NN)n2)cc1 [Compound 538]	26 to 50	51 to 75	51 to 75	76 to 100	0 to 25	0 to 25	26 to 50	51 to 75				
Nc1nc(OCc2cc3ccccc3o2)ncc1F [Compound 554]					0 to 25	51 to 75	76 to 100	76 to 100	26 to 50	76 to 100	26 to 50	76 to 100
Nc1nc(OC2CCCc3cccnc32)ncc1F (centres unmarked) [Compound 560]					0 to 25	26 to 50	0 to 25	76 to 100	0 to 25	26 to 50	0 to 25	76 to 100
C=CCc1cc(COc2ncc(F)c(N)n2)cc(OC)c1OC [Compound 569]					26 to 50	76 to 100	76 to 100	76 to 100	76 to 100	76 to 100	51 to 75	76 to 100
CN(C)/C=N/c1nc(OCc2cccs2)ncc1F [Compound 570]					0 to 25	26 to 50	26 to 50	76 to 100	76 to 100	76 to 100	76 to 100	76 to 100
Nc1nc(OCc2cnc(Cl)c(Cl)c2)ncc1F [Compound 582]					51 to 75	51 to 75	76 to 100	76 to 100	76 to 100	76 to 100	76 to 100	76 to 100
CCn1nccc1Oc1ncc(F)c(N)n1 [Compound 584]					26 to 50	26 to 50	26 to 50	26 to 50	0 to 25	76 to 100	0 to 25	76 to 100
Nc1nc(Oc2cccc(Cl)c2)ncc1F [Compound 593]					26 to 50	51 to 75	76 to 100	76 to 100	0 to 25	51 to 75		
Fc1cnc(OCc2ccccc2)nc1/N=C/N1CCOCC1 [Compound 626]					0 to 25	0 to 25	26 to 50	76 to 100	76 to 100	76 to 100	76 to 100	76 to 100
Nc1nc(OCc2csc3ccccc23)ncc1F [Compound 630]					0 to 25	0 to 25	51 to 75	76 to 100	76 to 100	76 to 100	76 to 100	76 to 100
C=CC(C)Oc1ncc(F)c(N)n1 (centres unmarked) [Compound 631]					0 to 25	0 to 25	0 to 25	26 to 50	0 to 25	0 to 25	0 to 25	0 to 25
Nc1nc(OCCCc2ccccn2)ncc1F [Compound 635]					26 to 50	26 to 50	26 to 50	76 to 100	26 to 50	76 to 100	0 to 25	76 to 100
COc1ccc(Oc2ncc(F)c(NC(C)=O)n2)cc1 [Compound 649]					0 to 25	0 to 25	26 to 50	26 to 50	0 to 25	26 to 50	0 to 25	76 to 100
CC(C)(c1ccccc1)c1cccc(COc2ncc(F)c(N)n2)c1 [Compound 687]					0 to 25	0 to 25	26 to 50	51 to 75	26 to 50	76 to 100	0 to 25	0 to 25
Fc1ccc(COc2ncc(F)c(NCn3c(-c4cscn4)nc4ccccc43)n2)cc1 [Compound 694]					26 to 50	26 to 50	26 to 50	51 to 75	0 to 25	26 to 50	0 to 25	26 to 50
Nc1nc(OCc2ccc(Cl)c([N+](=O)[O-])c2)ncc1F [Compound 707]					51 to 75	26 to 50	51 to 75	51 to 75	76 to 100	76 to 100	76 to 100	76 to 100
CC(CCOc1ncc(F)c(N)n1)c1ccccc1 (centres unmarked) [Compound 710]					0 to 25	0 to 25	26 to 50	26 to 50	51 to 75	76 to 100	51 to 75	76 to 100
Nc1nc(OCCSc2ccc(Cl)cc2)ncc1F [Compound 719]					0 to 25	26 to 50	51 to 75	51 to 75	0 to 25	51 to 75		
